Results on one compound are retold here after patent publication US9670514B2, “Method for producing polysaccharide” (SANYO CHEMICAL INDUSTRIES, LTD., priority 2011, dated 2017).

Assay [1] has as its system nucleoside diphosphate kinase. The experiment in a line: Michaelis constant Km of uridine triphosphate synthesis using. The assay is classed as biochemical, rat. To be noted: uridine diphosphate as substrate, adenosine triphosphate as phosphate donor, 30° C., Hanes-Woolf plot. The protocol: The Michaelis constant Km can be determined through determination of the dependence of the initial enzyme reaction velocity on the substrate concentration in accordance with the method reported by Agarwal et al. (described in Methods of Enzymology, 1978, Vol. 51, pp. 483-491). (D4-1) in a purified form is used for the measurement of the Michaelis constant Km. The inhibitory concentration IC50 is determined by the method described above. […]
(D4-1-2) obtained in Preparation 8 was dissolved in 890 μL of aqueous solution 7 (50 mM phosphate buffer (pH of 7.5, 25° C.) containing 5 mM magnesium chloride and 100 mM adenosine triphosphate (available from Sigma-Aldrich Corporation)) in a 1.5 mL-tube. […] The supernatant (80 μL) was analyzed by HPLC, and the peak areas of uridine triphosphate were recorded.
Solutions were prepared by changing the molar concentration of sodium uridine diphosphate in substrate solution [2-1] to 5 mM (substrate solution [2-2]), 2 mM (substrate solution [2-3]), 1 mM (substrate solution [2-4]), and 0.3 mM (substrate solution [2-5]). […] The peak areas of uridine triphosphate were recorded for enzyme reaction solutions (IV-2-2) to (IV-2-5) in a similar manner for enzyme reaction solution (IV-2-1). […]

The subject of the next assay is arginine kinase. The experiment in a line: Michaelis constant Km of uridine triphosphate synthesis using arginine kinase. The assay is classed as biochemical, Toxoplasma gondii. To be noted: uridine diphosphate as substrate, ω-phosphono-L-arginine as phosphate donor. The protocol: Arginine kinase aqueous solution (D4-1-3) was obtained in a similar manner as in Preparation 1, except that a “gene encoding the amino acid sequence of SEQ ID NO: 9 derived from Toxoplasma gondii” was used in place of the “gene encoding the amino acid sequence of SEQ ID NO: 1 derived from Streptococcus equisimilis”.
The tube was allowed to stand at 30° C. for 3 minutes in a constant temperature water bath. To the tube was added 100 μL of temperature-adjusted (30° C.) substrate solution [2-1] (a solution obtained by dissolving sodium uridine diphosphate to a concentration of 10 mM in buffer solution B). Thereby, enzyme reaction solution (IV-2-1) was obtained. A portion (100 μL) of (IV-2-1) was extracted immediately after preparation and at 1-minute intervals. The extracted portions were heated at 100° C. for 2 minutes to stop the enzyme reaction, and centrifuged using a centrifuge (4° C., 12,000×g, 10 min) to precipitate impurities. The supernatant (80 μL) was analyzed by HPLC, and the peak areas of uridine triphosphate were recorded.
A Hanes-Woolf plot was constructed using the calculated initial enzyme reaction velocity v, with the horizontal axis (x-axis) plotting each substrate concentration [S], and the vertical axis (y-axis) plotting the […] of the initial enzyme reaction velocity at each substrate concentration. […]

The term Km denotes the concentration of substrate that gives half-maximal velocity. `O=c1ccn([C@@H]2O[C@H](COP(=O)(O)OP(=O)(O)O)[C@@H](O)[C@H]2O)c(=O)[nH]1` [uridine diphosphate]: the Km in assay [1] came to 250 µM; with arginine kinase it was 710 µM.
